Laboratory results as given in US11470846B2, “Herbicidal pyridino-/pyrimidino-thiazoles” (SYNGENTA PARTICIPATIONS AG, priority 2014, dated 2022).

Assays:
Format in all cases: in vivo
[1] = tested on: Alopecurus myosuroides (ALOMY); assay: Pre-emergence herbicidal activity; settings: pre-emergence application, 1000 g/Ha, evaluated after 13 days, scale 0-5
Method: (§1) B1 Pre-Emergence Herbicidal Activity
(§2) Seeds of a variety of test species were sown in standard soil in pots: Triticum aestivium (TRZAW), Oryza sativa (ORYSA), Avena fatua (AVEFA), Alopecurus myosuroides (ALOMY), Echinochloa crus-galli (ECHCG), Lolium perenne (LOLPE), Zea Mays (ZEAMX), Abutilon theophrasti (ABUTH), Amaranthus retroflexus (AMARE) and Setaria faberi (SETFA). After cultivation for one day (pre-emergence) under controlled conditions in a glasshouse (at 24/16° C., day/night; 14 hours light; 65% humidity), the plants were sprayed with an aqueous spray solution derived from the formulation of the technical active ingredient in acetone/water (50:50) solution containing 0.5% Tween 20 (polyoxyethelyene sorbitan monolaurate, CAS RN 9005-64-5). The test plants were then grown in a glasshouse under controlled conditions (at 24/16° C., day/night; 14 hours light; 65% humidity) and watered twice daily. After 13 days, the test was evaluated (5=total damage to plant; 0=no damage to plant).

Avena fatua (AVEFA) [2] = assay: Pre-emergence herbicidal activity; settings: pre-emergence application, 1000 g/Ha, evaluated after 13 days, scale 0-5
Method: as §1, §2

[3] = tested on: Echinochloa crus-galli (ECHCG); assay: Pre-emergence herbicidal activity; settings: pre-emergence application, 1000 g/Ha, evaluated after 13 days, scale 0-5; Table 5
Method: as §1, §2

Lolium perenne (LOLPE) [4] = assay: Pre-emergence herbicidal activity; settings: pre-emergence application, 1000 g/Ha, evaluated after 13 days, scale 0-5; Table 5
Method: as §1, §2

Oryza sativa (ORYSA) [5] = assay: Pre-emergence herbicidal activity; settings: pre-emergence application, 1000 g/Ha, evaluated after 13 days, scale 0-5
Method: as §1, §2

[6] = tested on: Triticum aestivium (TRZAW); assay: Pre-emergence herbicidal activity; settings: pre-emergence application, 1000 g/Ha, evaluated after 13 days, scale 0-5
Method: as §1, §2

[7] = tested on: Alopecurus myosuroides (ALOMY); assay: Post-emergence herbicidal activity; settings: post-emergence application, 1000 g/Ha, evaluated after 13 days, scale 0-5
Method: (§3) B2 Post-Emergence Herbicidal Activity
(§4) Seeds of a variety of test species were sown in standard soil in pots: Triticum aestivium (TRZAW), Oryza sativa (ORYSA), Avena fatua (AVEFA), Alopecurus myosuroides (ALOMY), Echinochloa crus-galli (ECHCG), Lolium perenne (LOLPE), Zea Mays (ZEAMX), Abutilon theophrasti (ABUTH), Amaranthus retroflexus (AMARE) and Setaria faberi (SETFA). After 8 days cultivation (post-emergence) under controlled conditions in a glasshouse (at 24/16° C., day/night; 14 hours light; 65% humidity), the plants were sprayed with an aqueous spray solution derived from the formulation of the technical active ingredient in acetone/water (50:50) solution containing 0.5% Tween 20 (polyoxyethelyene sorbitan monolaurate, CAS RN 9005-64-5). The test plants were then grown in a glasshouse under controlled conditions (at 24/16° C., day/night; 14 hours light; 65% humidity) and watered twice daily. After 13 days, the test was evaluated (5=total damage to plant; 0=no damage to plant).

Avena fatua (AVEFA) [8] = assay: Post-emergence herbicidal activity; settings: post-emergence application, 1000 g/Ha, evaluated after 13 days, scale 0-5
Method: as §3, §4

[9] = tested on: Echinochloa crus-galli (ECHCG); assay: Post-emergence herbicidal activity; settings: post-emergence application, 1000 g/Ha, evaluated after 13 days, scale 0-5; Table 7
Method: as §3, §4

Lolium perenne (LOLPE) [10] = assay: Post-emergence herbicidal activity; settings: post-emergence application, 1000 g/Ha, evaluated after 13 days, scale 0-5; Table 7
Method: as §3, §4

Oryza sativa (ORYSA) [11] = assay: Post-emergence herbicidal activity; settings: post-emergence application, 1000 g/Ha, evaluated after 13 days, scale 0-5
Method: as §3, §4

[12] = tested on: Triticum aestivium (TRZAW); assay: Post-emergence herbicidal activity; settings: post-emergence application, 1000 g/Ha, evaluated after 13 days, scale 0-5
Method: as §3, §4

Compound | Control of weed species, ALOMY (damage score) [1] | Control of weed species, AVEFA (damage score) (Avena fatua (AVEFA) [2]) | Control of weed species, ECHCG (damage score) [3] | Control of weed species, LOLPE (damage score) (Lolium perenne (LOLPE) [4]) | Control of weed species, ORYSA (damage score) (Oryza sativa (ORYSA) [5]) | Control of weed species, TRZAW (damage score) [6] | Control of weed species, ALOMY (damage score) [7] | Control of weed species, AVEFA (damage score) (Avena fatua (AVEFA) [8]) | Control of weed species, ECHCG (damage score) [9] | Control of weed species, LOLPE (damage score) (Lolium perenne (LOLPE) [10]) | Control of weed species, ORYSA (damage score) (Oryza sativa (ORYSA) [11]) | Control of weed species, TRZAW (damage score) [12]
CN(C(=O)OC(C)(C)C)c1sc(-c2cccnc2)nc1Cl [Compound A29] | 1 | 2 | 3 | 2 | 2 | 3 | 1 | 4 | 5 | 4 | 1 | 1
CN(C(=O)OC(C)(C)C)c1sc(-c2cccnc2)nc1Br [Compound A30, tert-butyl N-[4-bromo-2-(3-pyridyl)thiazol-5-yl]-N-methyl-carbamate] | 1 | 3 | 4 | 2 | 1 | 0 | 1 | 4 | 5 | 4 | 1 | 2
CN(C(=O)OC(C)(C)C)c1sc(-c2cccnc2)nc1I [Compound A31, tert-butyl N-[4-iodo-2-(3-pyridyl)thiazol-5-yl]-N-methyl-carbamate] | 1 | 1 | 3 | 2 | 1 | 1 | 1 | 5 | 4 | 3 | 1 | 1
CN(C(=O)OC(C)(C)C)c1sc(-c2cccnc2)nc1F [Compound A32, tert-butyl N-[4-fluoro-2-(3-pyridyl)thiazol-5-yl]-N-methyl-carbamate] | 0 | 1 | 2 | 1 | 2 | 0 | 1 | 3 | 3 | 2 | 1 | 0
Cc1nc(-c2cncc(F)c2)sc1N1CCOC1=O [Compound A38, 3-[2-(5-fluoro-3-pyridyl)-4-methyl-thiazol-5-yl]oxazolidin-2-one] | 1 | 1 | 5 | 2 | 3 | 0 | 1 | 4 | 5 | 3 | 0 | 1
Cc1nc(-c2cccnc2)sc1N(C)C(=O)NOC(C)(C)C [Compound A45, 3-tert-butoxy-1-methyl-1-(4-methyl-2-(3-pyridyl)thiazol-5-yl)urea] | 2 | 3 | 3 | 2 | 2 | 1 | 1 | 5 | 4 | 4 | 2 | 2
